ChEMBL document CHEMBL1201862, “PubChem BioAssay data set” (2004)
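Cultured in 96-well plates, cells were exposed to test compound for 48 hours across five concentrations. GI50: concentration for 50% inhibition of growth.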 Activity calls are given as the source filed them. Cut-off read from the data, not from the text of the source: active = GI50 up to about 1.1 µM and inactive = higher.

Legend:
Assay in all cases: NCI anticancer screen, dose series, 48 h
SK-MEL-28 = test system: SK-MEL-28
OVCAR-8 = test system: OVCAR-8
HCT-15 = test system: HCT-15
OVCAR-3 = test system: OVCAR-3
Hs-578T = test system: Hs-578T
BT-549 = test system: BT-549
U-251 = test system: U-251
SNB-19 = test system: SNB-19
M14 = test system: M14
HOP-92 = test system: HOP-92
SW-620 = test system: SW-620
ACHN = test system: ACHN
CAKI-1 = test system: CAKI-1
HCT-116 = test system: HCT-116
MOLT-4 = test system: MOLT-4
A549 = test system: A549
NCI-H226 = test system: NCI-H226
NCI-H522 = test system: NCI-H522
MDA-N = test system: MDA-N
HT-29 = test system: HT-29
CCRF-CEM = test system: CCRF-CEM
NCI-H23 = test system: NCI-H23
NCI-H460 = test system: NCI-H460
Malme-3M = test system: Malme-3M
A498 = test system: A498
NCI/ADR-RES = test system: NCI/ADR-RES
MDA-MB-435 = test system: MDA-MB-435
TK-10 = test system: TK-10
LOX IMVI = test system: LOX IMVI
EKVX = test system: EKVX
SF-268 = test system: SF-268
MCF7 = test system: MCF7
SNB-75 = test system: SNB-75
HL-60 = test system: HL-60
OVCAR-4 = test system: OVCAR-4
COLO 205 = test system: COLO 205
OVCAR-5 = test system: OVCAR-5
SN12C = test system: SN12C
SK-OV-3 = test system: SK-OV-3
SK-MEL-5 = test system: SK-MEL-5
SR = test system: SR
DU-145 = test system: DU-145
RPMI-8226 = test system: RPMI-8226
K562 = test system: K562
PC-3 = test system: PC-3
MDA-MB-231 = test system: MDA-MB-231
UO-31 = test system: UO-31
HOP-62 = test system: HOP-62
UACC-62 = test system: UACC-62
KM12 = test system: KM12
T47D = test system: T47D
SF-295 = test system: SF-295
HCC 2998 = test system: HCC 2998
IGROV-1 = test system: IGROV-1
RXF 393 = test system: RXF 393
786-0 = test system: 786-0
SF-539 = test system: SF-539
SK-MEL-2 = test system: SK-MEL-2
UACC-257 = test system: UACC-257

`CCOC(=O)C1CCCC1S(=O)(=O)c1ccc(C)cc1` (stereo unspecified) was tested, and the GI50 (SK-MEL-28) was > 100 µM (inactive), the GI50 (OVCAR-8) was > 100 µM (inactive) and the GI50 (HCT-15) was greater than 100 µM. The GI50 (OVCAR-3) was > 100 µM (inactive), the GI50 (Hs-578T) was > 100 µM (inactive) and the GI50 (BT-549) was > 100 µM (inactive). For the same molecule, the GI50 (U-251) was > 100 µM (inactive), the GI50 (SNB-19) was > 100 µM (inactive) and the GI50 (M14) was > 100 µM (inactive). For the same molecule, the GI50 (HOP-92) was > 100 µM (inactive), the GI50 (SW-620) was > 100 µM (inactive) and the GI50 (ACHN) was > 100 µM (inactive). The GI50 (CAKI-1) was > 100 µM (inactive), the GI50 (HCT-116) was > 100 µM (inactive) and the GI50 (MOLT-4) was > 100 µM (inactive). The GI50 (A549) was > 100 µM (inactive), the GI50 (NCI-H226) was > 100 µM (inactive) and the GI50 (NCI-H522) was > 100 µM (inactive). The GI50 (MDA-N) was > 100 µM (inactive), the GI50 (HT-29) was > 100 µM (inactive) and the GI50 (CCRF-CEM) was > 100 µM (inactive). The GI50 (NCI-H23) was > 100 µM (inactive), the GI50 (NCI-H460) was > 100 µM (inactive) and the GI50 (Malme-3M) was > 100 µM (inactive). For the same molecule, the GI50 (A498) was 45.3 µM (inactive), the GI50 (NCI/ADR-RES) was > 100 µM (inactive) and the GI50 (MDA-MB-435) was 79.4 µM (inactive). For the same molecule, the GI50 (TK-10) was > 100 µM (inactive), the GI50 (LOX IMVI) was > 100 µM (inactive) and the GI50 (EKVX) was > 100 µM (inactive). The GI50 (SF-268) was > 100 µM (inactive), the GI50 (MCF7) was > 100 µM (inactive) and the GI50 (SNB-75) was 84.1 µM (inactive). For the same molecule, the GI50 (HL-60) was > 100 µM (inactive), the GI50 (OVCAR-4) was > 100 µM (inactive) and the GI50 (COLO 205) was > 100 µM (inactive). The GI50 (OVCAR-5) was > 100 µM (inactive), the GI50 (SN12C) was > 100 µM (inactive) and the GI50 (SK-OV-3) was > 100 µM (inactive). The GI50 (SK-MEL-5) was > 100 µM (inactive), the GI50 (SR) was > 100 µM (inactive) and the GI50 (DU-145) was > 100 µM (inactive). For the same molecule, the GI50 (RPMI-8226) was > 100 µM (inactive), the GI50 (K562) was > 100 µM (inactive) and the GI50 (PC-3) was > 100 µM (inactive). The GI50 (MDA-MB-231) was > 100 µM (inactive), the GI50 (UO-31) was > 100 µM (inactive) and the GI50 (HOP-62) was > 100 µM (inactive). For the same molecule, the GI50 (UACC-62) was > 100 µM (inactive), the GI50 (KM12) was > 100 µM (inactive) and the GI50 (T47D) was > 100 µM (inactive). For the same molecule, the GI50 (SF-295) was > 100 µM (inactive), the GI50 (HCC 2998) was > 100 µM (inactive) and the GI50 (IGROV-1) was > 100 µM (inactive). For the same molecule, the GI50 (RXF 393) was > 100 µM (inactive) and the GI50 (786-0) was > 100 µM (inactive).
`O=C1O[C@H](COC(=O)c2ccccc2)[C@@H](OC(=O)c2ccccc2)C=C1OC(=O)c1ccccc1` was tested, and the GI50 (OVCAR-8) was 21.8 µM (inactive), the GI50 (HCT-15) was 17.7 µM and the GI50 (OVCAR-3) was 18.3 µM (inactive). For the same molecule, the GI50 (Hs-578T) was 33 µM (inactive), the GI50 (BT-549) was 16.4 µM (inactive) and the GI50 (U-251) was 18.2 µM (inactive). The GI50 (SNB-19) was 18.1 µM (inactive), the GI50 (M14) was 17.5 µM (inactive) and the GI50 (HOP-92) was 21.8 µM (inactive). For the same molecule, the GI50 (SW-620) was 19 µM (inactive), the GI50 (ACHN) was 16 µM (inactive) and the GI50 (CAKI-1) was 23.8 µM (inactive). For the same molecule, the GI50 (HCT-116) was 17.3 µM (inactive), the GI50 (MOLT-4) was 23.1 µM (inactive) and the GI50 (NCI-H226) was 21.5 µM (inactive). For the same molecule, the GI50 (NCI-H522) was 20.2 µM (inactive), the GI50 (MDA-N) was 31.7 µM (inactive) and the GI50 (CCRF-CEM) was 14.1 µM (inactive). The GI50 (NCI-H23) was 18.1 µM (inactive), the GI50 (NCI-H460) was 16.2 µM (inactive) and the GI50 (A498) was 55.7 µM (inactive). For the same molecule, the GI50 (NCI/ADR-RES) was 18.9 µM (inactive), the GI50 (MDA-MB-435) was 25 µM (inactive) and the GI50 (TK-10) was 27.9 µM (inactive). The GI50 (LOX IMVI) was 19.8 µM (inactive), the GI50 (EKVX) was 17.7 µM (inactive) and the GI50 (SF-268) was 18.3 µM (inactive). For the same molecule, the GI50 (MCF7) was 28.8 µM (inactive), the GI50 (SNB-75) was 25.8 µM (inactive) and the GI50 (HL-60) was 10.5 µM (inactive). The GI50 (OVCAR-4) was 20.9 µM (inactive), the GI50 (COLO 205) was 19.6 µM (inactive) and the GI50 (OVCAR-5) was 21 µM (inactive). The GI50 (SN12C) was 18.8 µM (inactive), the GI50 (SK-OV-3) was > 100 µM (inactive) and the GI50 (SK-MEL-5) was 19 µM (inactive). For the same molecule, the GI50 (SR) was 18.5 µM (inactive), the GI50 (DU-145) was 36.6 µM (inactive) and the GI50 (RPMI-8226) was 29.6 µM (inactive). The GI50 (K562) was 24.3 µM (inactive), the GI50 (PC-3) was 25.4 µM (inactive) and the GI50 (MDA-MB-231) was 17.5 µM (inactive). For the same molecule, the GI50 (UO-31) was 30.9 µM (inactive), the GI50 (HOP-62) was 20 µM (inactive) and the GI50 (UACC-62) was 20.7 µM (inactive). For the same molecule, the GI50 (KM12) was 33.7 µM (inactive), the GI50 (SF-539) was 17.6 µM (inactive) and the GI50 (T47D) was 23.4 µM (inactive). For the same molecule, the GI50 (SF-295) was 17.8 µM (inactive), the GI50 (HCC 2998) was > 100 µM (inactive) and the GI50 (IGROV-1) was 21.5 µM (inactive). The GI50 (RXF 393) was 17 µM (inactive), the GI50 (786-0) was 18.2 µM (inactive) and the GI50 (SK-MEL-2) was 23.5 µM (inactive). For the same molecule, the GI50 (UACC-257) was 25.7 µM (inactive).
